Assay results: US20240286998A1, “F[…], ANALOGUES THEREOF, AND METHODS USING SAME” (Saint Joseph's University, priority 2021, published 2024)
Where a name gives a salt, the structure may show the parent alone.

Target: 5-HT2B (Homo sapiens (Human), UniProt P41595)
Experiment: 5-HT2B Gq-mediated calcium flux functional assay
Type: cell-based
Settings: not given

Chain of 5-HT2B (P41595 whole entry): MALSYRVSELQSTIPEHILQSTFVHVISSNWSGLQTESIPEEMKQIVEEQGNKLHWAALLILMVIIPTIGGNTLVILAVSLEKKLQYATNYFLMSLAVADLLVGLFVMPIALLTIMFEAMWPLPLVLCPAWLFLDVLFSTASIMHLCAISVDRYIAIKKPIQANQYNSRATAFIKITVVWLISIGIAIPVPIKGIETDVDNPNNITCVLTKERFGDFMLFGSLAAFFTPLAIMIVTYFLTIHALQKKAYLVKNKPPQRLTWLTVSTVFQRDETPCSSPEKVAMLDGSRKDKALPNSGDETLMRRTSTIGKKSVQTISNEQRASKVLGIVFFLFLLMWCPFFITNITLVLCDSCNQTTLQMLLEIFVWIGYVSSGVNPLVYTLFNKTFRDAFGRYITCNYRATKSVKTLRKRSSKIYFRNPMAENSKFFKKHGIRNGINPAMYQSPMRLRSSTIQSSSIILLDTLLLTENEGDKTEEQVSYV

Row | Structure (SMILES) | EC50 [nM]
1 | CCC(C)N(CCc1c[nH]c2ccc(F)cc12)C(C)C (stereo not shown) [compound 32, N-(2-(5-fluoro-1H-indol-3-yl)ethyl)-N-isopropylbutan-2-amine] | 0.955
2 | C=CCN(CC)CCc1c[nH]c2ccc(F)cc12 [compound 36, N-ethyl-N-(2-(5-fluoro-1H-indol-3-yl)ethyl)prop-2-en-1-amine] | 1.74
3 | CC(C)N(CCc1c[nH]c2ccc(F)cc12)C1CCC1 [compound 40, N-(2-(5-fluoro-1H-indol-3-yl)ethyl)-N-isopropylcyclobutanamine] | 1.1

Same assay, conditions: IA = Inactive; N=1-3

Row | Structure (SMILES) | 5-HT2B-Ca2+ FLUX Emax (% 5-HT)
4 | CCC(C)N(CCc1c[nH]c2ccc(F)cc12)C(C)C (stereo not shown) [compound 32, N-(2-(5-fluoro-1H-indol-3-yl)ethyl)-N-isopropylbutan-2-amine] | 108.0 ± 1.8
5 | C=CCN(CC)CCc1c[nH]c2ccc(F)cc12 [compound 36, N-ethyl-N-(2-(5-fluoro-1H-indol-3-yl)ethyl)prop-2-en-1-amine] | 104.5 ± 2.0
6 | CC(C)N(CCc1c[nH]c2ccc(F)cc12)C1CCC1 [compound 40, N-(2-(5-fluoro-1H-indol-3-yl)ethyl)-N-isopropylcyclobutanamine] | 106.7 ± 1.5
7 | CC(CN)c1c[nH]c2ccc(F)cc12 (stereo not shown) [compound 187, 2-(5-fluoro-1H-indol-3-yl)propan-1-amine] | 89.0 ± 1.4

Same assay, conditions: IA = Inactive; N=1-3; read-out: 5-HT2B-Ca2+ FLUX pEC50 (converted)

Row | Structure (SMILES) | EC50 [nM]
8 | CC(CN)c1c[nH]c2ccc(F)cc12 (stereo not shown) [compound 187, 2-(5-fluoro-1H-indol-3-yl)propan-1-amine] | 1.26

Tested on: not given
Experiment: not given
Settings: not given

Row | Structure (SMILES) | melting point [°C]
9 | CCN(C)CC(=O)c1c[nH]c2ccc(F)cc12 | 160.1 to 164.8
10 | CC(C1CC1)N(C)CCc1c[nH]c2ccc(F)cc12 (stereo not shown) (as salt: HCl) | 100.7 to 101.5
11 | CCC(C)N(C)CCc1c[nH]c2ccc(F)cc12 (stereo not shown) (as salt: HCl) [Example 3, N-(2-(5-fluoro-1H-indol-3-yl)ethyl)-N-methylbutan-2-amine] | 136.5 to 142
12 | CCCN(CCc1c[nH]c2ccc(F)cc12)C(C)C (as salt: HCl) [Example 4, N-(2-(5-fluoro-1H-indol-3-yl)ethyl)-N-isopropylpropan-1-amine] | 155.8 to 158

Target: 5-HT1A (Homo sapiens (Human), UniProt P08908)
Experiment: 5-HT1A Gi/o-mediated cAMP inhibition, GloSensor assay
Type: cell-based
Settings: not given

Row | Structure (SMILES) | EC50 [nM]
13 | CCC(C)N(CCc1c[nH]c2ccc(F)cc12)C(C)C (stereo not shown) [compound 32, N-(2-(5-fluoro-1H-indol-3-yl)ethyl)-N-isopropylbutan-2-amine] | 1260
14 | C=CCN(CC)CCc1c[nH]c2ccc(F)cc12 [compound 36, N-ethyl-N-(2-(5-fluoro-1H-indol-3-yl)ethyl)prop-2-en-1-amine] | 56.2
15 | CC(C)N(CCc1c[nH]c2ccc(F)cc12)C1CCC1 [compound 40, N-(2-(5-fluoro-1H-indol-3-yl)ethyl)-N-isopropylcyclobutanamine] | 66.1
16 | CC(CN)c1c[nH]c2ccc(F)cc12 (stereo not shown) [compound 187, 2-(5-fluoro-1H-indol-3-yl)propan-1-amine] | 933

Same assay, conditions: cAMP inhibition, 0.2 μM isoproterenol; IA = Inactive

Row | Structure (SMILES) | 5-HT1A-cAMP Emax (% 5-HT)
17 | CCC(C)N(CCc1c[nH]c2ccc(F)cc12)C(C)C (stereo not shown) [compound 32, N-(2-(5-fluoro-1H-indol-3-yl)ethyl)-N-isopropylbutan-2-amine] | 88.5 ± 2.8
18 | C=CCN(CC)CCc1c[nH]c2ccc(F)cc12 [compound 36, N-ethyl-N-(2-(5-fluoro-1H-indol-3-yl)ethyl)prop-2-en-1-amine] | 98.4 ± 1.5
19 | CC(C)N(CCc1c[nH]c2ccc(F)cc12)C1CCC1 [compound 40, N-(2-(5-fluoro-1H-indol-3-yl)ethyl)-N-isopropylcyclobutanamine] | 102.1 ± 1.7
20 | CC(CN)c1c[nH]c2ccc(F)cc12 (stereo not shown) [compound 187, 2-(5-fluoro-1H-indol-3-yl)propan-1-amine] | 88.5 ± 2.8

Target: 5-HT2A (Homo sapiens (Human), UniProt P28223)
Experiment: 5-HT2A Gq-mediated calcium flux functional assay
Type: cell-based
Settings: not given

Row | Structure (SMILES) | EC50 [nM]
21 | CCC(C)N(CCc1c[nH]c2ccc(F)cc12)C(C)C (stereo not shown) [compound 32, N-(2-(5-fluoro-1H-indol-3-yl)ethyl)-N-isopropylbutan-2-amine] | 1.12
22 | C=CCN(CC)CCc1c[nH]c2ccc(F)cc12 [compound 36, N-ethyl-N-(2-(5-fluoro-1H-indol-3-yl)ethyl)prop-2-en-1-amine] | 1.2
23 | CC(C)N(CCc1c[nH]c2ccc(F)cc12)C1CCC1 [compound 40, N-(2-(5-fluoro-1H-indol-3-yl)ethyl)-N-isopropylcyclobutanamine] | 0.891

Same assay, conditions: IA = Inactive; N=1-3

Row | Structure (SMILES) | 5-HT2A-Ca2+ FLUX Emax (% 5-HT)
24 | CCC(C)N(CCc1c[nH]c2ccc(F)cc12)C(C)C (stereo not shown) [compound 32, N-(2-(5-fluoro-1H-indol-3-yl)ethyl)-N-isopropylbutan-2-amine] | 106.8 ± 1.7
25 | C=CCN(CC)CCc1c[nH]c2ccc(F)cc12 [compound 36, N-ethyl-N-(2-(5-fluoro-1H-indol-3-yl)ethyl)prop-2-en-1-amine] | 104.8 ± 2.0
26 | CC(C)N(CCc1c[nH]c2ccc(F)cc12)C1CCC1 [compound 40, N-(2-(5-fluoro-1H-indol-3-yl)ethyl)-N-isopropylcyclobutanamine] | 102.5 ± 2.0
27 | CC(CN)c1c[nH]c2ccc(F)cc12 (stereo not shown) [compound 187, 2-(5-fluoro-1H-indol-3-yl)propan-1-amine] | 90.7 ± 2.5

Same assay, conditions: IA = Inactive; N=1-3; read-out: 5-HT2A-Ca2+ FLUX pEC50 (converted)

Row | Structure (SMILES) | EC50 [nM]
28 | CC(CN)c1c[nH]c2ccc(F)cc12 (stereo not shown) [compound 187, 2-(5-fluoro-1H-indol-3-yl)propan-1-amine] | 36.3

Target: 5-HT2C (Homo sapiens (Human), UniProt P28335)
Sequence (P28335 whole entry, looked up): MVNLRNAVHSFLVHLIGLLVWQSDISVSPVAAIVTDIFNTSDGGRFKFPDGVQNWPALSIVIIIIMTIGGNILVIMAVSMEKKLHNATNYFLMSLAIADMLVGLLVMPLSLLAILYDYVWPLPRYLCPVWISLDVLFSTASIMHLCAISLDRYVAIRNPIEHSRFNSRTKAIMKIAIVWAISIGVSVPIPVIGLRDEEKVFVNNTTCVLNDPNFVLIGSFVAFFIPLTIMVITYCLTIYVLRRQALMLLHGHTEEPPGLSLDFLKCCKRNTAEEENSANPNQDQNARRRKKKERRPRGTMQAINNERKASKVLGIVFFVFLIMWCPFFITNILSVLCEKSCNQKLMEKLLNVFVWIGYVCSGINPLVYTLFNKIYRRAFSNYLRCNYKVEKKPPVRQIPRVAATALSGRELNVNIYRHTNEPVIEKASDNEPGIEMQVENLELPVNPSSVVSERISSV
Experiment: 5-HT2C Gq-mediated calcium flux functional assay
Type: cell-based
Settings: not given

Row | Structure (SMILES) | EC50 [nM]
29 | CCC(C)N(CCc1c[nH]c2ccc(F)cc12)C(C)C (stereo not shown) [compound 32, N-(2-(5-fluoro-1H-indol-3-yl)ethyl)-N-isopropylbutan-2-amine] | 64.6
30 | C=CCN(CC)CCc1c[nH]c2ccc(F)cc12 [compound 36, N-ethyl-N-(2-(5-fluoro-1H-indol-3-yl)ethyl)prop-2-en-1-amine] | 17
31 | CC(C)N(CCc1c[nH]c2ccc(F)cc12)C1CCC1 [compound 40, N-(2-(5-fluoro-1H-indol-3-yl)ethyl)-N-isopropylcyclobutanamine] | 112

Same assay, conditions: IA = Inactive; N=1-3

Row | Structure (SMILES) | 5-HT2C-Ca2+ FLUX Emax (% 5-HT)
32 | CCC(C)N(CCc1c[nH]c2ccc(F)cc12)C(C)C (stereo not shown) [compound 32, N-(2-(5-fluoro-1H-indol-3-yl)ethyl)-N-isopropylbutan-2-amine] | 101.5 ± 2.7
33 | C=CCN(CC)CCc1c[nH]c2ccc(F)cc12 [compound 36, N-ethyl-N-(2-(5-fluoro-1H-indol-3-yl)ethyl)prop-2-en-1-amine] | 101.5 ± 1.9
34 | CC(C)N(CCc1c[nH]c2ccc(F)cc12)C1CCC1 [compound 40, N-(2-(5-fluoro-1H-indol-3-yl)ethyl)-N-isopropylcyclobutanamine] | 94.9 ± 2.0
35 | CC(CN)c1c[nH]c2ccc(F)cc12 (stereo not shown) [compound 187, 2-(5-fluoro-1H-indol-3-yl)propan-1-amine] | 93.6 ± 0.9

Same assay, conditions: IA = Inactive; N=1-3; read-out: 5-HT2C-Ca2+ FLUX pEC50 (converted)

Row | Structure (SMILES) | EC50 [nM]
36 | CC(CN)c1c[nH]c2ccc(F)cc12 (stereo not shown) [compound 187, 2-(5-fluoro-1H-indol-3-yl)propan-1-amine] | 18.6

Target: Serotonin 5-HT2A (human) (Homo sapiens (Human), UniProt P28223)
Experiment: 5-HT2A receptor binding, [3H]-ketanserin competition in membrane fractions
Settings: 1 nM [3H]-ketanserin, Cheng-Prusoff, N=1-3

Row | Structure (SMILES) | 5-HT2A pKi ± SEM
37 | CCC(C)N(CCc1c[nH]c2ccc(F)cc12)C(C)C (stereo not shown) [compound 32, N-(2-(5-fluoro-1H-indol-3-yl)ethyl)-N-isopropylbutan-2-amine] | 5.86 ± 0.16
38 | C=CCN(CC)CCc1c[nH]c2ccc(F)cc12 [compound 36, N-ethyl-N-(2-(5-fluoro-1H-indol-3-yl)ethyl)prop-2-en-1-amine] | 6.13 ± 0.08
39 | CC(C)N(CCc1c[nH]c2ccc(F)cc12)C1CCC1 [compound 40, N-(2-(5-fluoro-1H-indol-3-yl)ethyl)-N-isopropylcyclobutanamine] | 6.06 ± 0.05
40 | CC(CN)c1c[nH]c2ccc(F)cc12 (stereo not shown) [compound 187, 2-(5-fluoro-1H-indol-3-yl)propan-1-amine] | 5.41
